Source: PMC4363092 (Journal of medicinal chemistry, 2014)
Entries after “also recorded” stand apart in the source; their conditions may differ.

Legend:
[1] = target: T1, TNAP (Homo sapiens, UniProt P05186); assay: Inhibition of TNAP activity; assay type: biochemical; conditions: analogue 100 μM
T1 sequence (P05186 18-502 limits assumed): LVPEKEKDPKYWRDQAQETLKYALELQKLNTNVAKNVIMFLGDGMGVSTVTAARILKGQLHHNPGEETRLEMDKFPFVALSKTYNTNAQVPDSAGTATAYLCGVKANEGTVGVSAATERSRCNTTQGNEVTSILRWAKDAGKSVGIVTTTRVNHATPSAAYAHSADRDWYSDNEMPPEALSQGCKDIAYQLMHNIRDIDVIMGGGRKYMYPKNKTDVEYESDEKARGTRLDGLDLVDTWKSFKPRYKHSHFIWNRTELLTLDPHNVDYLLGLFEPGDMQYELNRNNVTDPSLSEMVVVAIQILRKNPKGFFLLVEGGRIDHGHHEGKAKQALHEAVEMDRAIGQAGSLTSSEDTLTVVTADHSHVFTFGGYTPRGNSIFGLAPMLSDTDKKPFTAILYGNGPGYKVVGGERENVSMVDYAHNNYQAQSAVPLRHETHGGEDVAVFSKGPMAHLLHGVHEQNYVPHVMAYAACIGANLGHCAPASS

[2] = test system: human NTPDase1,2,3,8; assay: Inhibition of NTPDase activity, text statements pooled over NTPDase1,2,3,8; assay type: biochemical; conditions: analogue 100 μM, pooled over four NTPDases
[3] = target: T2, P2Y11 receptor (Homo sapiens, UniProt Q96G91); assay: [Ca2+]i elevation in 1321N1 astrocytoma cells expressing GFP-P2Y11 receptor; assay type: cell-based; conditions: 1321N1 cells; nr = no response up to 10 μM
T2 sequence (Q96G91 1-374): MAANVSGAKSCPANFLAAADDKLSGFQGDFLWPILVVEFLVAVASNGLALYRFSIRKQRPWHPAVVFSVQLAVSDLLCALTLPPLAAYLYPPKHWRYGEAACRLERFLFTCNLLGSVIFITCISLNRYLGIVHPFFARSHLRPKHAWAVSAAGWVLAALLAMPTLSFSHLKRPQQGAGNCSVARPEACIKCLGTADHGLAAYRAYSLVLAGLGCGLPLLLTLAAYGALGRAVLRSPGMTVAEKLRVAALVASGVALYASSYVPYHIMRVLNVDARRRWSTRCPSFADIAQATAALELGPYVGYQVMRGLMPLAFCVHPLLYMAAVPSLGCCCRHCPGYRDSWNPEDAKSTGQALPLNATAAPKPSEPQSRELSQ

[4] = target: T3, human NTPDase8 (Homo sapiens, UniProt Q5MY95); conditions: analogue 100 μM as substrate; activity with 100 μM ATP set as 100%
T3 sequence (Q5MY95 1-495): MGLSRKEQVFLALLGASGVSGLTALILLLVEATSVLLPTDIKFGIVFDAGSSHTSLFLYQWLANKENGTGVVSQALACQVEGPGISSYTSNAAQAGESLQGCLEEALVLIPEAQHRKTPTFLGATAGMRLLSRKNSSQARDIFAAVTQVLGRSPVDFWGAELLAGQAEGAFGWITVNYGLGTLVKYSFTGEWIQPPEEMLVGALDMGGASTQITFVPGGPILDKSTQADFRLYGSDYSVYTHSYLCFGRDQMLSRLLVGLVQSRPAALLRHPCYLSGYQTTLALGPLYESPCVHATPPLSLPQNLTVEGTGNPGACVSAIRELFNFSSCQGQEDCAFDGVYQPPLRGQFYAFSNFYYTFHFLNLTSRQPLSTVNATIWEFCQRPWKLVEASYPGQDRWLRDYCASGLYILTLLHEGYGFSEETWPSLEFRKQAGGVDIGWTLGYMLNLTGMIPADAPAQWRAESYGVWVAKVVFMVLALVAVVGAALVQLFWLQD

[5] = target: T4, human NTPDase2 (Homo sapiens, UniProt Q9Y5L3); conditions: analogue 100 μM as substrate; activity with 100 μM ATP set as 100%
T4 sequence (Q9Y5L3 1-495): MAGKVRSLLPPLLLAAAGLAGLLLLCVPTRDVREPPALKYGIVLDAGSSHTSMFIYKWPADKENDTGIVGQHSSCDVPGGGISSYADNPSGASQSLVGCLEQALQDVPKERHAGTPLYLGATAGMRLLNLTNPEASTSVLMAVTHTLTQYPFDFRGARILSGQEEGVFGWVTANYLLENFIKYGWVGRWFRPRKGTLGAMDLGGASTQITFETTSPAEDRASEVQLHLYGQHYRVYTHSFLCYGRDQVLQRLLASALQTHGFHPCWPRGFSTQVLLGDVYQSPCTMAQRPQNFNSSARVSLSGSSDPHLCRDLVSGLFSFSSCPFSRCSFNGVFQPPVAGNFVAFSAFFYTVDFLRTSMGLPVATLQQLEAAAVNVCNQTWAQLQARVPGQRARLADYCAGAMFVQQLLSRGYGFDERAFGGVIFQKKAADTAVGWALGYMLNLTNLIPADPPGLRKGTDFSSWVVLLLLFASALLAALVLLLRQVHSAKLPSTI

[6] = target: T5, human NPP1 (Homo sapiens, UniProt P22413); assay: Inhibition of NPP1, ATP as substrate; assay type: biochemical; conditions: analogue 100 μM, ATP 100 μM
T5 sequence (P22413 1-925): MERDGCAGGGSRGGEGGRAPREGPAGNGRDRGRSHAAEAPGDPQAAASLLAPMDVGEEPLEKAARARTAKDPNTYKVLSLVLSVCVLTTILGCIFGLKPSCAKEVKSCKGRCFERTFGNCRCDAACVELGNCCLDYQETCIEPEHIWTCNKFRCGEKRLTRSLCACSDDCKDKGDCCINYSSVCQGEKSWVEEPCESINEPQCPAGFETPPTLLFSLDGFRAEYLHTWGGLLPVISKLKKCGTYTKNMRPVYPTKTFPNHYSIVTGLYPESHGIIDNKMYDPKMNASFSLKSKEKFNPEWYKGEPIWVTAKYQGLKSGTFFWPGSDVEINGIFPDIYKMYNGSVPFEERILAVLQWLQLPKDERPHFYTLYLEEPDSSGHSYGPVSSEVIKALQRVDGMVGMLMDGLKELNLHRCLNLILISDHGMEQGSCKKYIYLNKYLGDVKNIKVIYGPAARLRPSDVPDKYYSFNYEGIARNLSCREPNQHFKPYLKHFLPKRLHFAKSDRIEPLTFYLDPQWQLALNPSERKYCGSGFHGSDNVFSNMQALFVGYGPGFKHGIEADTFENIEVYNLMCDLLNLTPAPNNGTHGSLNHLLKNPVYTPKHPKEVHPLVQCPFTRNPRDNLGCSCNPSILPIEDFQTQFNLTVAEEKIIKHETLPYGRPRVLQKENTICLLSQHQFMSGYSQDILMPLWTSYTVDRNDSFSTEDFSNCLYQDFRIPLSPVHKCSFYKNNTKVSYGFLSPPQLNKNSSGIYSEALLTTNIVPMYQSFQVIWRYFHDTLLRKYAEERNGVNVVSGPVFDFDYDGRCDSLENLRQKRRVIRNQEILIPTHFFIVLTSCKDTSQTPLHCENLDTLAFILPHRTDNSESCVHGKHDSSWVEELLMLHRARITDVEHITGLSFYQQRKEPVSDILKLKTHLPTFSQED

Question: What does the source list for `Nc1ncnc2c1ncn2[C@@H]1O[C@H](CO[P@](O)(=S)OP(=O)(O)C(Cl)(Cl)P(=O)(O)O)[C@@H](O)[C@H]1O` [2a]?
Answer: inhibition of TNAP [1]: 8–17%; inhibition of ATP hydrolysis by NTPDase1,2,3,8 [2]: did not interfere; EC50 ± SEM (μM), [Ca^2+]i elevation, P2Y11 [3]: not agonists; also recorded: inactive; also recorded: not active, nr ^c; relative activity (%) ± SD of ATP hydrolysis, NTPDase8 [4]: 4.3 ± 0.1%; relative activity (%) ± SD of ATP hydrolysis, NTPDase2 [5]: 5.2 ± 0.1%; inhibition of ATP hydrolysis by NPP1 [6]: about 90%

Question: How did the “inhibition of TNAP” value [1] turn out when `Nc1ncnc2c1ncn2[C@@H]1O[C@H](COP(=O)(O)CP(=O)(O)OP(O)(O)=S)[C@@H](O)[C@H]1O` [compound 3] was run?
Answer: The value was 8–17%.

Question: And the “relative activity (%) ± SD of ATP hydrolysis, NTPDase8” value [4]?
Answer: Its value is 5.2 ± 0.2%.

Question: And the “relative activity (%) ± SD of ATP hydrolysis, NTPDase2” value [5]?
Answer: The value was 4.7 ± 0.2%.

Question: And the “inhibition of ATP hydrolysis by NPP1” value [6]?
Answer: Its value is “about 90%”.
